Patent US8048825B2, “Haloalkylsulfonanilide derivatives or salt thereof, herbicide comprising the derivatives as active ingredient, and use of the herbicide” (Nihon Nohyaku Co., Ltd., priority 2006, dated 2011)

What was measured:
Format in all cases: in vivo
Echinochloa crus-galli = experiment: Herbicidal effect on paddy field weeds of post-emergence stage (Post), Test Example 2; conditions: one-leaf stage, 1000 g/ha as active ingredient, examined after 21 days
Summary of the method: (§1)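 Post-emergence paddy test: formulated compound added to 5 cm standing water at 1000 g/ha a.i. when weeds reached one-leaf stage in clay loam pots in greenhouse. Growth inhibition rated 21 days later versus untreated control on a 0 (0%) to 5 (100%) scale.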

Lindernia procumbens [1] = experiment: as above; conditions: one-leaf stage, 1000 g/ha as active ingredient, examined after 21 days
Summary of the method: as §1

Scirpus juncoides [2] = experiment: as above; conditions: one-leaf stage, 1000 g/ha as active ingredient, examined after 21 days
Summary of the method: as §1

Lindernia procumbens [3] = experiment: Herbicidal efficacy on paddy field weeds of pre-emergence stage (Pre), Test Example 1; conditions: 1000 g/ha as active ingredient, examined after 21 days
Summary of the method: (§2)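 Pre-emergence paddy test: 1000 g/ha active ingredient, formulated and water-diluted, dropped onto 5 cm floodwater one day after sowing both weeds in clay loam. After 21 days in greenhouse, inhibition relative to untreated control rated on 0 (0%) to 5 (100%) scale.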

Scirpus juncoides [4] = experiment: as above; conditions: 1000 g/ha as active ingredient, examined after 21 days
Summary of the method: as §2

CCCC1(CC)CCN(Cc2ccccc2N(C(=O)OCC)S(=O)(=O)C(F)(F)F)C(=O)O1 (racemic) [Compound 1-496]
Echinochloa crus-galli post (herbicidal effect) (Echinochloa crus-galli): 4 (90%-99% herbicidal effect, phytotoxicity)
Lindernia procumbens post (herbicidal effect) (Lindernia procumbens [1]): 5 (100% herbicidal effect, phytotoxicity)
Scirpus juncoides post (herbicidal effect) (Scirpus juncoides [2]): 4 (90%-99% herbicidal effect, phytotoxicity)
Lindernia procumbens pre (herbicidal effect) (Lindernia procumbens [3]): 5 (100% herbicidal effect, phytotoxicity)
Scirpus juncoides pre (herbicidal effect) (Scirpus juncoides [4]): 5 (100% herbicidal effect, phytotoxicity)

CCOC(=O)N(c1ccccc1CN1CCC(C)(C(F)(F)F)OC1=O)S(=O)(=O)C(F)(F)F (stereo not shown) [Compound 1-82]
Echinochloa crus-galli post (herbicidal effect) (Echinochloa crus-galli): 4 (90%-99% herbicidal effect, phytotoxicity)
Lindernia procumbens post (herbicidal effect) (Lindernia procumbens [1]): 5 (100% herbicidal effect, phytotoxicity)
Scirpus juncoides post (herbicidal effect) (Scirpus juncoides [2]): 4 (90%-99% herbicidal effect, phytotoxicity)
Lindernia procumbens pre (herbicidal effect) (Lindernia procumbens [3]): 5 (100% herbicidal effect, phytotoxicity)
Scirpus juncoides pre (herbicidal effect) (Scirpus juncoides [4]): 5 (100% herbicidal effect, phytotoxicity)

CCC1(C(C)C)CCN(Cc2ccccc2N(C(=O)OCC(C)C)S(=O)(=O)C(F)(F)F)C(=O)O1 (racemic) [Compound 1-455]
Echinochloa crus-galli post (herbicidal effect) (Echinochloa crus-galli): 5 (100% herbicidal effect, phytotoxicity)
Lindernia procumbens post (herbicidal effect) (Lindernia procumbens [1]): 5 (100% herbicidal effect, phytotoxicity)
Scirpus juncoides post (herbicidal effect) (Scirpus juncoides [2]): 4 (90%-99% herbicidal effect, phytotoxicity)
Lindernia procumbens pre (herbicidal effect) (Lindernia procumbens [3]): 5 (100% herbicidal effect, phytotoxicity)
Scirpus juncoides pre (herbicidal effect) (Scirpus juncoides [4]): 5 (100% herbicidal effect, phytotoxicity)

CCOC(=O)N(c1ccccc1CN1CC(C)(C)COC1=S)S(=O)(=O)C(F)(F)F [Compound 1-36]
Echinochloa crus-galli post (herbicidal effect) (Echinochloa crus-galli): 4 (90%-99% herbicidal effect, phytotoxicity)
Lindernia procumbens post (herbicidal effect) (Lindernia procumbens [1]): 4 (90%-99% herbicidal effect, phytotoxicity)
Scirpus juncoides post (herbicidal effect) (Scirpus juncoides [2]): 4 (90%-99% herbicidal effect, phytotoxicity)
Lindernia procumbens pre (herbicidal effect) (Lindernia procumbens [3]): 4 (90%-99% herbicidal effect, phytotoxicity)
Scirpus juncoides pre (herbicidal effect) (Scirpus juncoides [4]): 4 (90%-99% herbicidal effect, phytotoxicity)

CCC1(C(C)C)CCN(Cc2ccccc2NS(=O)(=O)C(F)(F)F)C(=O)O1 (racemic) [Compound 1-450]
Echinochloa crus-galli post (herbicidal effect) (Echinochloa crus-galli): 4 (90%-99% herbicidal effect, phytotoxicity)
Lindernia procumbens post (herbicidal effect) (Lindernia procumbens [1]): 5 (100% herbicidal effect, phytotoxicity)
Scirpus juncoides post (herbicidal effect) (Scirpus juncoides [2]): 4 (90%-99% herbicidal effect, phytotoxicity)
Lindernia procumbens pre (herbicidal effect) (Lindernia procumbens [3]): 5 (100% herbicidal effect, phytotoxicity)
Scirpus juncoides pre (herbicidal effect) (Scirpus juncoides [4]): 5 (100% herbicidal effect, phytotoxicity)

COC(=O)N(c1ccccc1CN1CCC(C)(c2c(F)cccc2F)OC1=O)S(=O)(=O)C(F)(F)F (racemic) [Compound 1-440]
Echinochloa crus-galli post (herbicidal effect) (Echinochloa crus-galli): 4 (90%-99% herbicidal effect, phytotoxicity)
Lindernia procumbens post (herbicidal effect) (Lindernia procumbens [1]): 5 (100% herbicidal effect, phytotoxicity)
Scirpus juncoides post (herbicidal effect) (Scirpus juncoides [2]): 4 (90%-99% herbicidal effect, phytotoxicity)
Lindernia procumbens pre (herbicidal effect) (Lindernia procumbens [3]): 5 (100% herbicidal effect, phytotoxicity)
Scirpus juncoides pre (herbicidal effect) (Scirpus juncoides [4]): 4 (90%-99% herbicidal effect, phytotoxicity)

CCC1(C(F)(F)F)CCN(Cc2ccccc2N(C(=O)OC)S(=O)(=O)C(F)(F)F)C(=O)O1 (stereo not shown) [Compound 1-92]
Echinochloa crus-galli post (herbicidal effect) (Echinochloa crus-galli): 4 (90%-99% herbicidal effect, phytotoxicity)
Lindernia procumbens post (herbicidal effect) (Lindernia procumbens [1]): 5 (100% herbicidal effect, phytotoxicity)
Scirpus juncoides post (herbicidal effect) (Scirpus juncoides [2]): 4 (90%-99% herbicidal effect, phytotoxicity)
Lindernia procumbens pre (herbicidal effect) (Lindernia procumbens [3]): 5 (100% herbicidal effect, phytotoxicity)
Scirpus juncoides pre (herbicidal effect) (Scirpus juncoides [4]): 4 (90%-99% herbicidal effect, phytotoxicity)

CCOC(=O)N(c1ccccc1CN1CCC(CC)(CC)OC1=O)S(=O)(=O)C(F)(F)F [Compound 1-104]
Echinochloa crus-galli post (herbicidal effect) (Echinochloa crus-galli): 4 (90%-99% herbicidal effect, phytotoxicity)
Lindernia procumbens post (herbicidal effect) (Lindernia procumbens [1]): 4 (90%-99% herbicidal effect, phytotoxicity)
Scirpus juncoides post (herbicidal effect) (Scirpus juncoides [2]): 4 (90%-99% herbicidal effect, phytotoxicity)
Lindernia procumbens pre (herbicidal effect) (Lindernia procumbens [3]): 4 (90%-99% herbicidal effect, phytotoxicity)
Scirpus juncoides pre (herbicidal effect) (Scirpus juncoides [4]): 4 (90%-99% herbicidal effect, phytotoxicity)

CC(C)(C)COC(=O)N(c1ccccc1CN1CCC(C)(C)OC1=O)S(=O)(=O)C(F)(F)F [Compound 1-51]
Echinochloa crus-galli post (herbicidal effect) (Echinochloa crus-galli): 4 (90%-99% herbicidal effect, phytotoxicity)
Lindernia procumbens post (herbicidal effect) (Lindernia procumbens [1]): 4 (90%-99% herbicidal effect, phytotoxicity)
Scirpus juncoides post (herbicidal effect) (Scirpus juncoides [2]): 4 (90%-99% herbicidal effect, phytotoxicity)
Lindernia procumbens pre (herbicidal effect) (Lindernia procumbens [3]): 4 (90%-99% herbicidal effect, phytotoxicity)
Scirpus juncoides pre (herbicidal effect) (Scirpus juncoides [4]): 4 (90%-99% herbicidal effect, phytotoxicity)

CC1CCN(Cc2ccccc2N(C(=O)OCC(Cl)(Cl)Cl)S(=O)(=O)C(F)(F)F)C(=O)OC1 (racemic) [2-34]
Echinochloa crus-galli post (herbicidal effect) (Echinochloa crus-galli): 4 (90%-99% herbicidal effect, phytotoxicity)
Lindernia procumbens post (herbicidal effect) (Lindernia procumbens [1]): 4 (90%-99% herbicidal effect, phytotoxicity)
Scirpus juncoides post (herbicidal effect) (Scirpus juncoides [2]): 4 (90%-99% herbicidal effect, phytotoxicity)
Lindernia procumbens pre (herbicidal effect) (Lindernia procumbens [3]): 4 (90%-99% herbicidal effect, phytotoxicity)
Scirpus juncoides pre (herbicidal effect) (Scirpus juncoides [4]): 4 (90%-99% herbicidal effect, phytotoxicity)

COC(=O)N(c1ccccc1CN1CCC(C)(C(F)(F)F)OC1=O)S(=O)(=O)C(F)(F)F (stereo not shown) [Compound 1-81]
Echinochloa crus-galli post (herbicidal effect) (Echinochloa crus-galli): 4 (90%-99% herbicidal effect, phytotoxicity)
Lindernia procumbens post (herbicidal effect) (Lindernia procumbens [1]): 5 (100% herbicidal effect, phytotoxicity)
Scirpus juncoides post (herbicidal effect) (Scirpus juncoides [2]): 4 (90%-99% herbicidal effect, phytotoxicity)
Lindernia procumbens pre (herbicidal effect) (Lindernia procumbens [3]): 5 (100% herbicidal effect, phytotoxicity)
Scirpus juncoides pre (herbicidal effect) (Scirpus juncoides [4]): 4 (90%-99% herbicidal effect, phytotoxicity)

CC(C)COC(=O)N(c1ccccc1CN1CCCOC1=S)S(=O)(=O)C(F)(F)F [Compound 1-17]
Echinochloa crus-galli post (herbicidal effect) (Echinochloa crus-galli): 4 (90%-99% herbicidal effect, phytotoxicity)
Lindernia procumbens post (herbicidal effect) (Lindernia procumbens [1]): 4 (90%-99% herbicidal effect, phytotoxicity)
Scirpus juncoides post (herbicidal effect) (Scirpus juncoides [2]): 4 (90%-99% herbicidal effect, phytotoxicity)
Lindernia procumbens pre (herbicidal effect) (Lindernia procumbens [3]): 4 (90%-99% herbicidal effect, phytotoxicity)
Scirpus juncoides pre (herbicidal effect) (Scirpus juncoides [4]): 4 (90%-99% herbicidal effect, phytotoxicity)

CCOC(=O)N(c1ccccc1CN1CCC(c2ccccc2)(C2CCC2)OC1=O)S(=O)(=O)C(F)(F)F (stereo not shown) [Compound 1-208]
Echinochloa crus-galli post (herbicidal effect) (Echinochloa crus-galli): 4 (90%-99% herbicidal effect, phytotoxicity)
Lindernia procumbens post (herbicidal effect) (Lindernia procumbens [1]): 4 (90%-99% herbicidal effect, phytotoxicity)
Scirpus juncoides post (herbicidal effect) (Scirpus juncoides [2]): 4 (90%-99% herbicidal effect, phytotoxicity)
Lindernia procumbens pre (herbicidal effect) (Lindernia procumbens [3]): 4 (90%-99% herbicidal effect, phytotoxicity)
Scirpus juncoides pre (herbicidal effect) (Scirpus juncoides [4]): 4 (90%-99% herbicidal effect, phytotoxicity)

CCCCOC(=O)N(c1ccccc1CN1CCCOC1=O)S(=O)(=O)C(F)(F)F [Compound 1-5]
Echinochloa crus-galli post (herbicidal effect) (Echinochloa crus-galli): 4 (90%-99% herbicidal effect, phytotoxicity)
Lindernia procumbens post (herbicidal effect) (Lindernia procumbens [1]): 4 (90%-99% herbicidal effect, phytotoxicity)
Scirpus juncoides post (herbicidal effect) (Scirpus juncoides [2]): 4 (90%-99% herbicidal effect, phytotoxicity)
Lindernia procumbens pre (herbicidal effect) (Lindernia procumbens [3]): 4 (90%-99% herbicidal effect, phytotoxicity)
Scirpus juncoides pre (herbicidal effect) (Scirpus juncoides [4]): 4 (90%-99% herbicidal effect, phytotoxicity)
